Results: patent publication US20190223443A1, “Methods to Increase Corn Growth” (Valent BioSciences LLC, priority 2015, published 2019)

What was measured:
Format in all cases: in vivo
corn hybrid B73 X Mo17 = test: Greenhouse study Long Grove, Ill., sprayed at V1-V2, change in height and synergy (Example 7)
Description: A greenhouse study was conducted at Long Grove, Ill. Seeds of the corn hybrid B73 X Mo17 was sown into potted soil on May 7, 2014. Plants were sprayed at 11 days post sowing (V1-V2) with solutions containing a non-ionic surfactant (0.25%, v/v) and growth was followed for 6 days. GA3 refers to gibberellic acid and ABA refers to abscisic acid. Results of the study described in 3. above can be seen in the following tables describing change in height in centimeters from day of treatment (Table 8) and change in height in centimeters from day of treatment compared to control (Table 9).
Synergy is calculated as follows: […]
Observed difference in height from control/Expected difference in height from control, where expected difference in height from control is the sum of the observed difference in height of each active ingredient applied alone. If the ratio between the experimentally observed efficacy of the mixture and the expected efficacy of the mixture is greater than 1, than synergistic interactions are present in the mixture.

Hybrid corn [1] = test: Corn trial under conventional tillage, Lozada, Argentina, sprayed at V3, yield at harvest (Example 3); conditions: for Yield difference from control treatment: difference of the Yield (kg/ha) column; for Yield: untreated 3840
Source text: In a corn trial under conventional tillage in Lozada, Argentina, hybrid corn was planted and sprayed at 16 days post-planting at the V3 growth stage.

Hybrid corn [2] = test: Vigor rating after foliar treatment at V2, field, Chabás, Santa Fe, Argentina (Example 1); conditions: 1 to 9 scale (untreated=5.0)
Description: Hybrid corn was grown under conventional tillage in Chabás, Santa Fe, Argentina. At V2 growth stage, GA3 or a combination of GA3 and ABA was applied as a foliar treatment. Vigor was rated on a 1 to 9 scale (untreated=5.0) following spray applications at the times specified in Table 1.

[3] = tested on: Hybrid 1 and Hybrid 2 corn; test: Field study Woodstock, Ill., sprayed at V2, shoot height (Examples 4 and 8); conditions: for Growth response to spray treatment (in words): sprayed at V2
Description: (§1) A field study was conducted at Woodstock, Ill. Seeds of two commercial varieties were sown: Hybrid 1 was northern corn belt variety with 100 days to maturity, while Hybrid 2 was a central corn belt variety with 111 days to maturity. Corn of these two varieties was sown into cool soil on May 7, 2014. Plants were sprayed at V2 with solutions containing a non-ionic surfactant (0.25%, v/v) at 15 gallons of spray solution/acre and growth was followed for 14 days. At seven days and 14 days after treatment shoot heights in centimeters were measured for 60 plants in each replicate.
as §1, with “GA3 refers to gibberellic acid” for “At seven days”, “ABA refers to abscisic acid. Results of the study are found in Table 10 below describing” for “14 days after treatment”, “height” for “heights”, “centimeters.” for “centimeters were measured for 60 plants in each replicate.”

Hybrid corn [4] = test: Final yield, field, Chabás, Santa Fe, Argentina (Example 1); conditions: untreated 8096
[5] = tested on: Hybrid 1 and Hybrid 2 corn; test: Field study, sprayed at V4, plant height (Examples 5 and 9)
Description: This study was conducted and the data analyzed as described above in Example 3 with the following the exceptions. The plants were sprayed at the V4 stage and plant height was measured at seven and 13 days post treatment.
Another study was conducted and the data analyzed as described Example 8, above, with the following the exceptions. The plants were sprayed at the V4 stage and plant height was measured at seven and 13 days post treatment. Results of this study are found in Table 11, below, describing shoot height in centimeters.

[6] = GA3 120 ppm, mixtures plus ABA 12 (10:1), 10 (12:1) or 8.6 ppm (14:1)
[7] = GA3 16 g/ha, mixtures plus ABA as labelled

C=C1C[C@]23C[C@@]1(O)CC[C@H]2[C@@]12C=C[C@H](O)[C@@](C)(C(=O)O1)[C@H]2[C@@H]3C(=O)O [GA3, gibberellic acid]
Observed change in height from day of treatment compared to control, 2 days post treatment (corn hybrid B73 X Mo17; [6]): 3.13 cm | Observed change in height from day of treatment compared to control, 4 days post treatment (corn hybrid B73 X Mo17; [6]): 4.97 cm | Observed change in height from day of treatment compared to control, 6 days post treatment (corn hybrid B73 X Mo17; [6]): 7.21 cm | Change in height from day of treatment, 2 days post treatment (corn hybrid B73 X Mo17; GA3 120 ppm, mixtures plus ABA 12 (10:1), 10 (12:1) or 8.6 ppm (14:1), control 9.74): 12.87 cm | Change in height from day of treatment, 4 days post treatment (corn hybrid B73 X Mo17; GA3 120 ppm, mixtures plus ABA 12 (10:1), 10 (12:1) or 8.6 ppm (14:1), control 22.59): 27.56 cm | Change in height from day of treatment, 6 days post treatment (corn hybrid B73 X Mo17; GA3 120 ppm, mixtures plus ABA 12 (10:1), 10 (12:1) or 8.6 ppm (14:1), control 43.03): 50.24 cm | Height of the corn compared to the control (in words) (corn hybrid B73 X Mo17; applied alone, Tables 8 and 9): increased the height | Yield difference from control treatment (Hybrid corn [1]; GA3 8 g/ha): 370 | Yield (Hybrid corn [1]; GA3 8 g/ha): 4210 kg/ha | Yield difference from control treatment (Hybrid corn [1]; [7]): 345 | Yield (Hybrid corn [1]; [7]): 4185 kg/ha | Vigor 3 d post-spraying (Hybrid corn [2]; GA3 8 g/ha): 5.2 | Vigor 7 d post-spraying (Hybrid corn [2]; GA3 8 g/ha): 5.3 | Vigor 15 d post-spraying (Hybrid corn [2]; GA3 8 g/ha): 5.5 | Vigor 3 d post-spraying (Hybrid corn [2]; [7]): 5.5 | Vigor 7 d post-spraying (Hybrid corn [2]; [7]): 5.6 | Vigor 15 d post-spraying (Hybrid corn [2]; [7]): 6.0 | Shoot height, 7 days post treatment ([3]; Hybrid 1, Table 5, control 0:0 37.75): 36.07 cm | Shoot height, 14 days post treatment ([3]; Hybrid 1, Table 5, control 0:0 57.90): 57.08 cm | Shoot height, 7 days post treatment ([3]; Hybrid 1, Table 10, control 0:0 37.75): 36.07 cm | Shoot height, 14 days post treatment ([3]; Hybrid 1, Table 10, control 0:0 57.90): 57.08 cm | Growth response to spray treatment (in words) ([3]; Hybrid 1): did not respond | Shoot height, 7 days post treatment ([3]; Hybrid 2, Table 5, control 0:0 29.56): 31.33 cm | Shoot height, 14 days post treatment ([3]; Hybrid 2, Table 5, control 0:0 50.16): 51.20 cm | Shoot height, 7 days post treatment ([3]; Hybrid 2, Table 10, control 0:0 29.56): 31.33 cm | Shoot height, 14 days post treatment ([3]; Hybrid 2, Table 10, control 0:0 50.16): 51.20 cm | Growth response to spray treatment (in words) ([3]; Hybrid 2): growth increased | Yield (Hybrid corn [4]; GA3 8 g/ha): 8355 kg/ha | Yield (Hybrid corn [4]; [7]): 8769 kg/ha | Plant height, 7 days post treatment ([5]; Hybrid 1, Table 6, control 0:0 76.50): 78.60 cm | Plant height, 13 days post treatment ([5]; Hybrid 1, Table 6, control 0:0 117.61): 116.44 cm | Shoot height, 7 days post treatment ([5]; Hybrid 1, Table 11, control 0:0 76.50): 78.60 cm | Shoot height, 13 days post treatment ([5]; Hybrid 1, Table 11, control 0:0 117.61): 116.44 cm | Plant height, 7 days post treatment ([5]; Hybrid 2, Table 6, control 0:0 63.76): 68.25 cm | Plant height, 13 days post treatment ([5]; Hybrid 2, Table 6, control 0:0 98.71): 102.40 cm | Shoot height, 7 days post treatment ([5]; Hybrid 2, Table 11, control 0:0 63.76): 68.25 cm | Shoot height, 13 days post treatment ([5]; Hybrid 2, Table 11, control 0:0 98.71): 102.40 cm
